Reference: patent publication US20250101023A1, “HETEROARYL DERIVATIVE AND USES THEREOF” (IUCF-HYU (INDUSTRY-UNIVERSITY COOPERATION FOUNDATION …, priority 2022, published 2025)

Tests used:
[1] = Body weight in SK-Br3 xenograft model; format: in vivo, mouse; settings: 10 mg/kg and 20 mg/kg, i.p. twice a week
Procedure: (§1) A mouse efficacy experiment was conducted after obtaining approval from the Laboratory Animal Ethics Committee of GenNBio (Review No.: GN-IACUC-Research 22-02-07). SK-Br3 and HCC-1954 cells (1×10^6 cells each) mixed with Matrigel (BD Biosciences) were […] injected into 5-week-old female Balb/c nude mice (Orient Bio, Seongnam, Republic of Korea). After tumors reached a size of about 100 mm^3, the compound, trastuzumab (20 mg/kg), and the like were intraperitoneally injected into mice (n=8 per group)(vehicle: 8% DMSO, 4% Tween-80, 88% PBS). The tumor size was measured twice weekly for about 4 weeks and calculated as follows. Volume (mm^3)=(a×b^2)/2; “a”, maximum diameter; “b”, vertical diameter

PLK3 = PLK3 (Homo sapiens (Human), UniProt Q9H4B4); test: Kinome-wide profiling; format: biochemical; settings: read-out: % Residual Activity (mean)
PKCa = PKCa (Homo sapiens (Human), UniProt P17252); test: Kinome-wide profiling; format: biochemical; settings: read-out: % Residual Activity (mean)
KHS/MAP4K5 = KHS/MAP4K5 (Homo sapiens (Human), UniProt Q9Y4K4); test: Kinome-wide profiling; format: biochemical; settings: read-out: % Residual Activity (mean)
TRKC = TRKC (Homo sapiens (Human), UniProt Q16288); test: Kinome-wide profiling; format: biochemical; settings: read-out: % Residual Activity (mean)
PAK6 = PAK6 (Homo sapiens (Human), UniProt Q9NQU5); test: Kinome-wide profiling; format: biochemical; settings: read-out: % Residual Activity (mean)
IRR/INSRR = IRR/INSRR (Homo sapiens (Human), UniProt P14616); test: Kinome-wide profiling; format: biochemical; settings: read-out: % Residual Activity (mean)
[2] = system: 371 human wild-type kinases; test: Kinome-wide inhibitory activity profiling (panel summary); format: biochemical; settings: 10 μM; CDK1, 2, 3, 5, 7, 9, 17, 18 complexes, LKB1, EPHA3/4/5/6, EPHB2, DYRK1A/B, MAK, MYLK4, GSK3b, FES, CHK2, PAK5, ERK1
TYRO3/SKY = TYRO3/SKY (Homo sapiens (Human), UniProt Q06418); test: Kinome-wide profiling; format: biochemical; settings: read-out: % Residual Activity (mean)
MKK4 = MKK4 (Homo sapiens (Human), UniProt P45985); test: Kinome-wide profiling; format: biochemical; settings: read-out: % Residual Activity (mean)
PLK1 = PLK1 (Homo sapiens (Human), UniProt P53350); test: Kinome-wide profiling; format: biochemical; settings: read-out: % Residual Activity (mean)
RSK1 = RSK1 (Homo sapiens (Human), UniProt Q15418); test: Kinome-wide profiling; format: biochemical; settings: read-out: % Residual Activity (mean)
SK-Br3 and HCC1954 cells = test: Combined treatment with trastuzumab; format: cell-based; settings: 40 nM Example 53 with trastuzumab titration, 72 hours
Text: The effect of combined administration was investigated in SK-Br3 and HCC1954 cells.

PIM2 = PIM2 (Homo sapiens (Human), UniProt Q9P1W9); test: Kinome-wide profiling; format: biochemical; settings: read-out: % Residual Activity (mean)
HCC1954 cells = test: Breast cancer growth inhibitory activity (Cell-titer Glo, 72 h); format: cell-based; settings: Homo sapiens, read-out: HCC1954 GI50
Summary of the method: (§2)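 Cells seeded at 2,500 (SK-Br3) or 1,000 (HCC1954) per well and grown 24 h before treatment. Viability read by Cell-titer Glo luminescence; IC50 from titration curve fitting.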

SK-Br3 cells = test: as above; format: cell-based; settings: Homo sapiens, SK-BR-3; read-out: SK-Br3 GI50
Summary of the method: as §2

NEK9 = NEK9 (Homo sapiens (Human), UniProt Q8TD19); test: Kinome-wide profiling; format: biochemical; settings: read-out: % Residual Activity (mean)
DYRK4 = DYRK4 (Homo sapiens (Human), UniProt Q9NR20); test: Kinome-wide profiling; format: biochemical; settings: read-out: % Residual Activity (mean)
BMPR2 = BMPR2 (Homo sapiens (Human), UniProt Q13873); test: Kinome-wide profiling; format: biochemical; settings: read-out: % Residual Activity (mean)
PKD2/PRKD2 = PKD2/PRKD2 (Homo sapiens (Human), UniProt Q9BZL6); test: Kinome-wide profiling; format: biochemical; settings: read-out: % Residual Activity (mean)
DAPK2 = DAPK2 (Homo sapiens (Human), UniProt Q9UIK4); test: Kinome-wide profiling; format: biochemical; settings: read-out: % Residual Activity (mean)
ULK1 = ULK1 (Homo sapiens (Human), UniProt O75385); test: Kinome-wide profiling; format: biochemical; settings: read-out: % Residual Activity (mean)
CAMK2b = CAMK2b (Homo sapiens (Human), UniProt Q13554); test: Kinome-wide profiling; format: biochemical; settings: read-out: % Residual Activity (mean)
MST3/STK24 = MST3/STK24 (Homo sapiens (Human), UniProt Q9Y6E0); test: Kinome-wide profiling; format: biochemical; settings: read-out: % Residual Activity (mean)
PKN3/PRK3 = PKN3/PRK3 (Homo sapiens (Human), UniProt Q6P5Z2); test: Kinome-wide profiling; format: biochemical; settings: read-out: % Residual Activity (mean)
PDGFRa = PDGFRa (Homo sapiens (Human), UniProt P16234); test: Kinome-wide profiling; format: biochemical; settings: read-out: % Residual Activity (mean)
PAK5 = PAK5 (Homo sapiens (Human), UniProt Q9P286); test: Kinome-wide profiling; format: biochemical; settings: read-out: % Residual Activity (mean)
IKKe/IKBKE = IKKe/IKBKE (Homo sapiens (Human), UniProt Q14164); test: Kinome-wide profiling; format: biochemical; settings: read-out: % Residual Activity (mean)
HCC1954 xenograft = HCC1954 xenograft model, anticancer efficacy; format: in vivo, mouse; settings: 20 mg/kg and 40 mg/kg, i.p. twice a week
Procedure: as §1

MLCK/MYLK = MLCK/MYLK (Homo sapiens (Human), UniProt Q15746); test: Kinome-wide profiling; format: biochemical; settings: read-out: % Residual Activity (mean)

TRKC, sequence (Q16288 32-839): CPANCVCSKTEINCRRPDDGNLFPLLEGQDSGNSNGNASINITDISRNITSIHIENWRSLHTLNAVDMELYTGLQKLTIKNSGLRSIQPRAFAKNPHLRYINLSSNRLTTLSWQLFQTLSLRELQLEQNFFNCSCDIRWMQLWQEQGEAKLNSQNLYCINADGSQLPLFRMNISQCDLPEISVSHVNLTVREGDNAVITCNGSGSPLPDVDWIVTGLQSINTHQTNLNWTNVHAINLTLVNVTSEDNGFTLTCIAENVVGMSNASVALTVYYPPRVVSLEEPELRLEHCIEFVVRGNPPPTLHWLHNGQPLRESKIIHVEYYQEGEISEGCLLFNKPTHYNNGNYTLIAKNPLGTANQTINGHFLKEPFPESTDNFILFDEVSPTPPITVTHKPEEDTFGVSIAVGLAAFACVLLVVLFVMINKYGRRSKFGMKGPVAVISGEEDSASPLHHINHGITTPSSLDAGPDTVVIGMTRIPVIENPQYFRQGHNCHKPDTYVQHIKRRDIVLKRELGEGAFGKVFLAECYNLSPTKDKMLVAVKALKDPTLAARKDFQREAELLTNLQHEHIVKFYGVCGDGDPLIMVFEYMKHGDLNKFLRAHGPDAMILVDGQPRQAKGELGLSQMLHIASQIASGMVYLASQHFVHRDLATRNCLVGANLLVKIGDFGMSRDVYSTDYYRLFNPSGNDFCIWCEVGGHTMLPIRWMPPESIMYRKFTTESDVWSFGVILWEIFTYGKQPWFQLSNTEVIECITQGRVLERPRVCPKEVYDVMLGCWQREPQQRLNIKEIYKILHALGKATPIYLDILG
RSK1, sequence (Q15418 whole entry): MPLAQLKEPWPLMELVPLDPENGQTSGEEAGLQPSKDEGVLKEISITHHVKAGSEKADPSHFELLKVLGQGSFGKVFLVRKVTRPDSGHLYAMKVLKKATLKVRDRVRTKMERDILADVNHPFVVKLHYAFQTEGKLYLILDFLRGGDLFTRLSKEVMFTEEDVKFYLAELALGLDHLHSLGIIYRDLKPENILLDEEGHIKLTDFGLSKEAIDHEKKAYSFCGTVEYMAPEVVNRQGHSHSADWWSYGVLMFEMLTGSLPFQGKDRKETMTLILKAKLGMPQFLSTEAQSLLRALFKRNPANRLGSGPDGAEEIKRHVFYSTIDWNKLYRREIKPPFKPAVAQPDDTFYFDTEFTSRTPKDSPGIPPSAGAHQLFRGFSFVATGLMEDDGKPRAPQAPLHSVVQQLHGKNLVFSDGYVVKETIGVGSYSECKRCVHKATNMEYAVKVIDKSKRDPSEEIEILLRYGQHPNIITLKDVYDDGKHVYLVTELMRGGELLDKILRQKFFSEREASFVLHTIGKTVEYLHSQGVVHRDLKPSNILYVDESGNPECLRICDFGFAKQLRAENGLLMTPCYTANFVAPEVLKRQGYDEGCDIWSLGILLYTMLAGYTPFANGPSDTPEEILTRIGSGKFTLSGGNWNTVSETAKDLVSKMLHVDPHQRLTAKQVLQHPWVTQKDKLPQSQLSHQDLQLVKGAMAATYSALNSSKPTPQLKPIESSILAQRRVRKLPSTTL
MKK4, sequence (P45985 whole entry): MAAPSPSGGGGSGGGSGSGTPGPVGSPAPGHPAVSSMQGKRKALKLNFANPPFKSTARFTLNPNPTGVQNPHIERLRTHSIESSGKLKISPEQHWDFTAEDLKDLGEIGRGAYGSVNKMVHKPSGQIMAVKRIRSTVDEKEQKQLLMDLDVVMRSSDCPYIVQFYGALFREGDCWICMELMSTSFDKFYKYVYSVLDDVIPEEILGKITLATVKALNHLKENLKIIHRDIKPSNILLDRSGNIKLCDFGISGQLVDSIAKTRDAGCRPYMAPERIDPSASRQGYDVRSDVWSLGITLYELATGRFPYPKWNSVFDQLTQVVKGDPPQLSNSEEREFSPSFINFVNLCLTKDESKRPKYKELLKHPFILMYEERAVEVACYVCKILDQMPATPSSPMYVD
PAK5, sequence (Q9P286 whole entry): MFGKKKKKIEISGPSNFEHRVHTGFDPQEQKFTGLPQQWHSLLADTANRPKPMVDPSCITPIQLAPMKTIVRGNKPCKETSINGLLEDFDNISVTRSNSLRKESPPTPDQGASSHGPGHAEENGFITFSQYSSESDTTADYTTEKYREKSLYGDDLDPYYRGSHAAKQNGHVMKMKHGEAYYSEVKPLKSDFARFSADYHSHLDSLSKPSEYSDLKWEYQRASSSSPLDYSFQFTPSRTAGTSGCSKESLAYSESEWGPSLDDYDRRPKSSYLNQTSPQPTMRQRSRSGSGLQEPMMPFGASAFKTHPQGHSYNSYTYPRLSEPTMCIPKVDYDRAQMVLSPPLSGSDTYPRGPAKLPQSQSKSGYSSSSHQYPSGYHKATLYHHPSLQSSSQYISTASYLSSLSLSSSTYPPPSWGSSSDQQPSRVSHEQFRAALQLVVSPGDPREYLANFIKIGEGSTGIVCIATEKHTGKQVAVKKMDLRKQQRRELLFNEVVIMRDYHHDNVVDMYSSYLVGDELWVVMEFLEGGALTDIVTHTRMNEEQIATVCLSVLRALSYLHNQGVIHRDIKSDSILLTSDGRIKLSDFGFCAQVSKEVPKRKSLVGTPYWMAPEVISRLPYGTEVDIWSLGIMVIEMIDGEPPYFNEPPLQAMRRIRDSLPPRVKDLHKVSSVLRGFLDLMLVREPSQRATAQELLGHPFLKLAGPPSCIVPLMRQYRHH
IRR/INSRR, sequence (P14616 27-1297): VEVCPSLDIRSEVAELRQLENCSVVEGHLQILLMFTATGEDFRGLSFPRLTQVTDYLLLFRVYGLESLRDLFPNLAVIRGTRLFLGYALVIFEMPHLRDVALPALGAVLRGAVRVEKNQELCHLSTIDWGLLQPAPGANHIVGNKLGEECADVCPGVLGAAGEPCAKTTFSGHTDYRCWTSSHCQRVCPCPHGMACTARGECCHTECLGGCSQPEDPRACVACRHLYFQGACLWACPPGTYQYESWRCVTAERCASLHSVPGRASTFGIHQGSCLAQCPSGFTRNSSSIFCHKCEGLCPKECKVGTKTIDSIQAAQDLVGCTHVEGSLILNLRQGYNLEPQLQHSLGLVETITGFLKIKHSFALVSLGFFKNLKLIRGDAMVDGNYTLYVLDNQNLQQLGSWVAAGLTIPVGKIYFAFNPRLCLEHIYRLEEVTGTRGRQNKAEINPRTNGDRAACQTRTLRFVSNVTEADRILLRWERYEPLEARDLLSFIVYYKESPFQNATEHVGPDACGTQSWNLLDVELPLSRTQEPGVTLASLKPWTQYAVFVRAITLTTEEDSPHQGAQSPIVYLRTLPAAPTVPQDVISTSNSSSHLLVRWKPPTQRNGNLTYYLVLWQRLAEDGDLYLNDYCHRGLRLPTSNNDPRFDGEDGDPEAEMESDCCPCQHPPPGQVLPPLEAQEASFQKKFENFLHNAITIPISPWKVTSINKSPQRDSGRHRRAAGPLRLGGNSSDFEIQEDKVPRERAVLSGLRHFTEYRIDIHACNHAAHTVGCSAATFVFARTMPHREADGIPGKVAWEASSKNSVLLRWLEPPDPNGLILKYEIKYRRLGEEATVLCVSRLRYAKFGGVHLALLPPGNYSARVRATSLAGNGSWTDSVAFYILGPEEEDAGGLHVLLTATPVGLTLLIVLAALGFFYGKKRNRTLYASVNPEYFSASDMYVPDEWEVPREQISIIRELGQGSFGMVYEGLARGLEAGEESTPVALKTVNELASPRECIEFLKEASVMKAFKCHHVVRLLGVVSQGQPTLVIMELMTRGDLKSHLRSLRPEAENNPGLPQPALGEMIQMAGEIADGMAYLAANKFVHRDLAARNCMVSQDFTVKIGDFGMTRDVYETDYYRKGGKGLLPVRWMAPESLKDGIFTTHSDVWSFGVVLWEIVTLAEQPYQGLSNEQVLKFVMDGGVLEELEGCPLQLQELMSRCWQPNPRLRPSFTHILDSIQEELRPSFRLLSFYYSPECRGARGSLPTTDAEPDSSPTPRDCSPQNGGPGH
MST3/STK24, sequence (Q9Y6E0 whole entry): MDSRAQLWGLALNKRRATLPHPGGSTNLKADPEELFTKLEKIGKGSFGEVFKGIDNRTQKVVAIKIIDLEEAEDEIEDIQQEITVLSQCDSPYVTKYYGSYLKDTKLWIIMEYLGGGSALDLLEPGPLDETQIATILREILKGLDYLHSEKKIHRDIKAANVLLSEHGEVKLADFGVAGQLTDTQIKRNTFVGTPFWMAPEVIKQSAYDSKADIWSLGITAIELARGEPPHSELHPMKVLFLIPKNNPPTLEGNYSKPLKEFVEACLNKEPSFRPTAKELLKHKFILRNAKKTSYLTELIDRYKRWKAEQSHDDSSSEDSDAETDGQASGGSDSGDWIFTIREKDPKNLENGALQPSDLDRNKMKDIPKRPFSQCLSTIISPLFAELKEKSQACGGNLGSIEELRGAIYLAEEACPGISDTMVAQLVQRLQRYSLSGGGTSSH

Which results are given for `CCn1cnc2c(NCc3ccc(-c4ccccn4)nc3)nc(-c3ccc(N)nc3)nc21` [Example 53, N-([2,2′-bipyridin]-5-ylmethyl)-2-(6-aminopyridin-3-yl)-9-ethyl-9H-purin-6-amine]?
mouse body weight [1]: without any change in mouse weight; remaining activity at 10 µM (PLK3): 94.4%; remaining activity at 10 µM (PKCa): 62.4%; remaining activity at 10 µM (KHS/MAP4K5): 88.3%; remaining activity at 10 µM (TRKC): 54.9%; remaining activity at 10 µM (PAK6): 57.2%; remaining activity at 10 µM (IRR/INSRR): 31.1%; kinase inhibition [2]: ≥ 90%; remaining activity at 10 µM (TYRO3/SKY): 22.4%; remaining activity at 10 µM (MKK4): 96.4%; remaining activity at 10 µM (PLK1): 68.3%; remaining activity at 10 µM (RSK1): 59.1%; anti-proliferative activity of trastuzumab on co-treatment (SK-Br3 and HCC1954 cells): slightly enhanced; anti-proliferative activity of trastuzumab on co-treatment (SK-Br3 and HCC1954 cells; listed as Compound 53): slightly increased; remaining activity at 10 µM (PIM2): 93.8%; GI50 (HCC1954 cells): 36 nM; GI50 (SK-Br3 cells): 38 nM; remaining activity at 10 µM (NEK9): 90%; remaining activity at 10 µM (DYRK4): 89.3%; remaining activity at 10 µM (BMPR2): 52.4%; remaining activity at 10 µM (PKD2/PRKD2): 72.3%; remaining activity at 10 µM (DAPK2): 85.7%; remaining activity at 10 µM (ULK1): 70.3%; remaining activity at 10 µM (CAMK2b): 65.2%; remaining activity at 10 µM (MST3/STK24): 47%; remaining activity at 10 µM (PKN3/PRK3): 81.5%; remaining activity at 10 µM (PDGFRa): 52.8%; remaining activity at 10 µM (PAK5): 7.55%; remaining activity at 10 µM (IKKe/IKBKE): 80.1%; anticancer efficacy (HCC1954 xenograft): dose-dependent anticancer efficacy; remaining activity at 10 µM (MLCK/MYLK): 63.4%
